Assays:
Assay type in all cases: biochemical
PI3K β (p110β/p85α)(h) = PI3K β (p110β/p85α)(h) (Homo sapiens, UniProt P42338); assay: Assay for phosphatidylinositol 3-kinase beta (PI3Kβ) activity, PI3K-HTRF kit; conditions: TR-FRET; enzyme 0.725 μg/ml, 10 μM PIP2, 10 μM ATP
Procedure: [The source words this procedure for another target and says it was used here with some conditions changed.] (§1) The compounds of the present invention were assayed for the activity of phosphatidylinositol 3-kinase gamma (PI3Kγ) by using a PI3K enzyme-homogenous time resolved fluorescence (PI3K-HTRF) kit, which is available from Upstate (Millipore Co, Billerica, Mass., USA).
(§2) Three kinds of buffer solutions including a phosphorylation reaction solution (a reaction buffer containing 40 mM MgCl2 which is available from Upstate was diluted 4 times and added with 5 mM DTT), a stop solution (STOP A and B solutions which are available from Upstate were mixed at a ratio of 3:1) and a fluorescence detection solution (Detection solutions A, B and C which are available from Upstate were mixed at a ratio of 1:1:18) were prepared. 1 mM of PIP2 substrate (phosphatidylinositol 4,5 biphosphate; Upstate), PI3Kγ (#14-558; Upstate) enzyme and 10 mM ATP (Sigma Aldrich Co., St. Louis, Mo., USA) were prepared. Each of PI3Kγ, 1 mM PIP2 and 10 mM ATP was diluted to 2.9 μg/ml (final reaction concentration: 1.45 μg/ml), 20 μM (final reaction concentration: 10 μM) and 40 μM (final reaction concentration: 10 μM), respectively. The buffer solution used for dilution and preparation process was the phosphorylation reaction solution. The stop solution was used for the termination of phosphorylation reaction, and the fluorescence detection solution was used for the detection of time-resolved fluorescence signals.
(§3) Each test sample was transferred to a 384 well low flange white flat bottom microplate (#3572, Corning Life Sciences, Lowell, Mass., USA) by using a multi 8-channel (Pipetman Neo multi 8×20, Gilson, Middleton, Wis., USA) to make a final phosphorylation reaction volume of 20 μl per each well. For the negative control, 5 μl of 14.4% DMSO and 10 μl of PIP2 substration solution were used, and 5 μl of 14.4% DMSO and 10 μl of PIP2/PI3Kγ mixed solution were used as the positive control. For the test group, 5 μl of a solution prepared by dissolving the compound obtained in Example in DMSO and 10 μl of PIP2/PI3Kγ mixed solution were used. Before the initiation of the phosphorylation reaction, sample compounds were pretreated with the enzyme for approximately 10 minutes, and then the phosphorylation reaction was induced by adding 5 μl of ATP. Since each of the test compound and ATP takes up 25% of the total volume, and PIP2 and PI3Kγ take up 50% of the total volume during the reaction, each solution was concentrated 4 and 2 times, respectively, before mixing the solutions. Subsequently, the test sample was gently shook for 3 minutes and subjected to a phosphorylation reaction for 90 minutes at room temperature, which was then added with 5 μl of the stop solution to terminate the phosphorylation reaction. In order to induce a time-resolved fluorescence reaction, 5 μl of the fluorescence detection solution was added to the sample. The fluorescence detection solution contains biotin-phosphatidylinositol 3,4,5-triphosphate (PIP3), streptavidin-labeled Allopycocyanin (APC) and europium-labeled Pleckstrin homology domain (the PIP3 binds to PH domain), and the time-resolved fluorescence reaction is induced by a series of reaction of PH domain and PIP3, and biotin and streptavidin. The sample was left to stand for 6 hours at room temperature, and the time-resolved fluorescence resonance energy transfer (TR-FRET) rate was measured (emission wavelength: 665 nm, 620 nm, excitation wavelength: 340 nm) by using a Flexstation3 Micro plate reader (Molecular Devices, USA). TR-FRET Rate and TR-Inhibition Rate were calculated based on Equations 1 and 2 below, and the results are expressed in IC50, which is the concentration of a compound that inhibits 50% of PI3Kγ activity in vitro. TR-FRET Rate=(665 nm emission wavelength/620 nm emission wavelength)×10000 <Equation 1> TR-FRET Inhibition Rate=[(TR-FRET Rate of Sample−TR-FRET Rate of Negative Control)/(TR-FRET Rate of Positive Control−TR-FRET Rate of Negative Control)]×100 <Equation 2> […]

PI3Kα (p110α/p85α)(h) = PI3Kα (p110α/p85α)(h) (Homo sapiens, UniProt P42336); assay: Assay for phosphatidylinositol 3-kinase alpha (PI3Kα) activity, PI3K-HTRF kit; conditions: TR-FRET; enzyme 0.3625 μg/ml, 10 μM PIP2, 10 μM ATP
Procedure: [The source words this procedure for another target and says it was used here with some conditions changed.] as §1, §2
(§4) Each test sample was transferred to a 384 well low flange white flat bottom microplate (#3572, Corning Life Sciences, Lowell, Mass., USA) by using a multi 8-channel (Pipetman Neo multi 8×20, Gilson, Middleton, Wis., USA) to make a final phosphorylation reaction volume of 20 μl per each well. For the negative control, 5 μl of 14.4% DMSO and 10 μl of PIP2 substration solution were used, and 5 μl of 14.4% DMSO and 10 μl of PIP2/PI3Kγ mixed solution were used as the positive control. For the test group, 5 μl of a solution prepared by dissolving the compound obtained in Example in DMSO and 10 μl of PIP2/PI3Kγ mixed solution were used. Before the initiation of the phosphorylation reaction, sample compounds were pretreated with the enzyme for approximately 10 minutes, and then the phosphorylation reaction was induced by adding 5 μl of ATP. Since each of the test compound and ATP takes up 25% of the total volume, and PIP2 and PI3Kγ take up 50% of the total volume during the reaction, each solution was concentrated 4 and 2 times, respectively, before mixing the solutions. Subsequently, the test sample was gently shook for 3 minutes and subjected to a phosphorylation reaction for 90 minutes at room temperature, which was then added with 5 μl of the stop solution to terminate the phosphorylation reaction. In order to induce a time-resolved fluorescence reaction, 5 μl of the fluorescence detection solution was added to the sample. The fluorescence detection solution contains biotin-phosphatidylinositol 3,4,5-triphosphate (PIP3), streptavidin-labeled Allopycocyanin (APC) and europium-labeled Pleckstrin homology domain (the PIP3 binds to PH domain), and the time-resolved fluorescence reaction is induced by a series of reaction of PH domain and PIP3, and biotin and streptavidin. The sample was left to stand for 6 hours at room temperature, and the time-resolved fluorescence resonance energy transfer (TR-FRET) rate was measured (emission wavelength: 665 nm, 620 nm, excitation wavelength: 340 nm) by using a Flexstation3 Micro plate reader (Molecular Devices, USA). TR-FRET Rate and TR-Inhibition Rate were calculated based on Equations 1 and 2 below, and the results are expressed in IC50, which is the concentration of a compound that inhibits 50% of PI3Kγ activity in vitro. TR-FRET Rate=(665 nm emission wavelength/620 nm emission wavelength)×10000 <Equation 1> TR-FRET Inhibition Rate=[(TR-FRET Rate of Sample−TR-FRET Rate of Negative Control)/(TR-FRET Rate of Positive Control−TR-FRET Rate of Negative Control)]×100 <Equation 2>

PI3Kδ (p110δ/p85α)(h) = PI3Kδ (p110δ/p85α)(h) (Homo sapiens, UniProt O00329); assay: Assay for phosphatidylinositol 3-kinase delta (PI3Kδ) activity, PI3K-HTRF kit; conditions: TR-FRET; enzyme 0.725 μg/ml, 10 μM PIP2, 10 μM ATP
Procedure: [The source words this procedure for another target and says it was used here with some conditions changed.] as §1, §2, §3

PI3Kγ (p120γ)(h) = PI3Kγ (p120γ)(h) (Homo sapiens, UniProt P48736); assay: Assay for phosphatidylinositol 3-kinase gamma (PI3Kγ) activity, PI3K-HTRF kit; conditions: TR-FRET; enzyme 1.45 μg/ml, 10 μM PIP2, 10 μM ATP
Procedure: as §1, §2, §4

PI3Kα (p110α/p85α)(h), sequence (P42336 whole entry): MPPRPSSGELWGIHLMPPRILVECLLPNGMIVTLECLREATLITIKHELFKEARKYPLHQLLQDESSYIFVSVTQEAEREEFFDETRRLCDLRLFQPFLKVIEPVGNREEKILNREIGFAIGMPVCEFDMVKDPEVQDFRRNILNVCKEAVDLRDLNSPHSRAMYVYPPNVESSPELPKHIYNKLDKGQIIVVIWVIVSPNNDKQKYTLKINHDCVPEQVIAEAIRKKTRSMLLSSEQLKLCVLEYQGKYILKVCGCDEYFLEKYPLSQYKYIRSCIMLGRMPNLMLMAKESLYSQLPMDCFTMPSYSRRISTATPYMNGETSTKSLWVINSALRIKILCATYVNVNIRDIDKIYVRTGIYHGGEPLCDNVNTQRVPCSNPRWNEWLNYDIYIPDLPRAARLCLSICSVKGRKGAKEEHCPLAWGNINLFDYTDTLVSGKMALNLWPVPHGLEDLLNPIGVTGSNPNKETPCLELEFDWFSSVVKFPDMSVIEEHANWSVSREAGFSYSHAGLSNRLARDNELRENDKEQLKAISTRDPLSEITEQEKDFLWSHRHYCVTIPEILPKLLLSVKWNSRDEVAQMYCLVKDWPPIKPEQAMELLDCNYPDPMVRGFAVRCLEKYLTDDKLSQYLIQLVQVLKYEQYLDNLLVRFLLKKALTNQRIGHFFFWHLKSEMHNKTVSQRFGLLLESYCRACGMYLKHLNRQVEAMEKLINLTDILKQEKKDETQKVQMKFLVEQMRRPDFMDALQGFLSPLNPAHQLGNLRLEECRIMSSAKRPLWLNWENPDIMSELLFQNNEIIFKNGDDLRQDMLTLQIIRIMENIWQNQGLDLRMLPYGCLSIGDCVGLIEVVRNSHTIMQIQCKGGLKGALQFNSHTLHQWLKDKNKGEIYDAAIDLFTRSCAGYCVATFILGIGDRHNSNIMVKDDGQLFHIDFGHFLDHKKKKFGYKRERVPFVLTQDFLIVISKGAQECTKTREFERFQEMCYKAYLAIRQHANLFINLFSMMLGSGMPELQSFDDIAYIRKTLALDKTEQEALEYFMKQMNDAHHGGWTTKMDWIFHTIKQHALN
PI3Kα (p110α/p85α)(h), sequence (P27986 whole entry partner): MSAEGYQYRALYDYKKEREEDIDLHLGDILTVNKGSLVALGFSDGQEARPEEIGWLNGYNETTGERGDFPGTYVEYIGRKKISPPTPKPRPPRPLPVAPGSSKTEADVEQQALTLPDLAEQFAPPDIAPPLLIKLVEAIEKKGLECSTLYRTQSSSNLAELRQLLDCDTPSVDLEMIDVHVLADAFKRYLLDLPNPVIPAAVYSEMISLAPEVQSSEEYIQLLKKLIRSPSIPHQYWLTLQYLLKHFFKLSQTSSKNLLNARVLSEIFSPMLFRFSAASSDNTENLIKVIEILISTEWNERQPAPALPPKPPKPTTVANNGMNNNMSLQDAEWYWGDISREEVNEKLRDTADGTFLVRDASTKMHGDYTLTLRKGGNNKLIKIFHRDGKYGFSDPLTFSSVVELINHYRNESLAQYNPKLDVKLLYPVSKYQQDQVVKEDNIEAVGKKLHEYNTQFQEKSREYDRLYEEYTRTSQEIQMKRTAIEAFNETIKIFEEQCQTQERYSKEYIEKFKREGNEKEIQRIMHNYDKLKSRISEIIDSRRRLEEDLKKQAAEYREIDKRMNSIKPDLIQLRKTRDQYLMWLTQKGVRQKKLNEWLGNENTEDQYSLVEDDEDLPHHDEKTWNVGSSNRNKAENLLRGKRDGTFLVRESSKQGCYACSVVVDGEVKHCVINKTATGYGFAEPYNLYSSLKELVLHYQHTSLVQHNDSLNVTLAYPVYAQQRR
PI3Kγ (p120γ)(h), sequence (P48736 whole entry): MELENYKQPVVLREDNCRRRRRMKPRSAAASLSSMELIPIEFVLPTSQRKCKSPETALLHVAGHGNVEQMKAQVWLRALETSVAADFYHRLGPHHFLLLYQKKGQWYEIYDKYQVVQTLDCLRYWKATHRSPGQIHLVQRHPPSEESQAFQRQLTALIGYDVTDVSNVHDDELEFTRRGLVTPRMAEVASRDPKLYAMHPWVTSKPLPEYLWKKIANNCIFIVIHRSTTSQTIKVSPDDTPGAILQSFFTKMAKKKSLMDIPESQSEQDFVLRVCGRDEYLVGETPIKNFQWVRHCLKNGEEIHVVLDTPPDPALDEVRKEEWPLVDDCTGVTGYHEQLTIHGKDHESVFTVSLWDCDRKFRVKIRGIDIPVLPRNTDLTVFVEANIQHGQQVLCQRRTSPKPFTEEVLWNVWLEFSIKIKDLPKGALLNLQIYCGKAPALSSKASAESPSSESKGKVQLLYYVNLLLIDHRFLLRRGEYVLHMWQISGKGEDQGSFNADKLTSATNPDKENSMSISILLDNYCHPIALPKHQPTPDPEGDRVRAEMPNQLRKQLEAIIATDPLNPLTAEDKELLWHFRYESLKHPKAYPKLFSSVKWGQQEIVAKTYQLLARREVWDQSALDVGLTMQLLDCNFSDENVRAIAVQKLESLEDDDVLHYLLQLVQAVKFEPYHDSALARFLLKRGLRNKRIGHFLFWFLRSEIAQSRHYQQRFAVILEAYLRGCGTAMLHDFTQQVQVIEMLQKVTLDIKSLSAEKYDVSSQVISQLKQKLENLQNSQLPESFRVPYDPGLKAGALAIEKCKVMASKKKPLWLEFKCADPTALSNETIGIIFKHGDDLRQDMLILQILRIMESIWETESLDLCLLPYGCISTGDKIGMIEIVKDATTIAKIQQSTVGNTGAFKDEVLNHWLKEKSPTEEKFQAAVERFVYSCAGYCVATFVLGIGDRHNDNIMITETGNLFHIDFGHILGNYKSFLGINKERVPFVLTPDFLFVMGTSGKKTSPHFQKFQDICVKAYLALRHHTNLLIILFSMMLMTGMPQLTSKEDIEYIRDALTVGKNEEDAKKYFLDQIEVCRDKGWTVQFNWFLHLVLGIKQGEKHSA
PI3K β (p110β/p85α)(h), sequence (P42338 whole entry): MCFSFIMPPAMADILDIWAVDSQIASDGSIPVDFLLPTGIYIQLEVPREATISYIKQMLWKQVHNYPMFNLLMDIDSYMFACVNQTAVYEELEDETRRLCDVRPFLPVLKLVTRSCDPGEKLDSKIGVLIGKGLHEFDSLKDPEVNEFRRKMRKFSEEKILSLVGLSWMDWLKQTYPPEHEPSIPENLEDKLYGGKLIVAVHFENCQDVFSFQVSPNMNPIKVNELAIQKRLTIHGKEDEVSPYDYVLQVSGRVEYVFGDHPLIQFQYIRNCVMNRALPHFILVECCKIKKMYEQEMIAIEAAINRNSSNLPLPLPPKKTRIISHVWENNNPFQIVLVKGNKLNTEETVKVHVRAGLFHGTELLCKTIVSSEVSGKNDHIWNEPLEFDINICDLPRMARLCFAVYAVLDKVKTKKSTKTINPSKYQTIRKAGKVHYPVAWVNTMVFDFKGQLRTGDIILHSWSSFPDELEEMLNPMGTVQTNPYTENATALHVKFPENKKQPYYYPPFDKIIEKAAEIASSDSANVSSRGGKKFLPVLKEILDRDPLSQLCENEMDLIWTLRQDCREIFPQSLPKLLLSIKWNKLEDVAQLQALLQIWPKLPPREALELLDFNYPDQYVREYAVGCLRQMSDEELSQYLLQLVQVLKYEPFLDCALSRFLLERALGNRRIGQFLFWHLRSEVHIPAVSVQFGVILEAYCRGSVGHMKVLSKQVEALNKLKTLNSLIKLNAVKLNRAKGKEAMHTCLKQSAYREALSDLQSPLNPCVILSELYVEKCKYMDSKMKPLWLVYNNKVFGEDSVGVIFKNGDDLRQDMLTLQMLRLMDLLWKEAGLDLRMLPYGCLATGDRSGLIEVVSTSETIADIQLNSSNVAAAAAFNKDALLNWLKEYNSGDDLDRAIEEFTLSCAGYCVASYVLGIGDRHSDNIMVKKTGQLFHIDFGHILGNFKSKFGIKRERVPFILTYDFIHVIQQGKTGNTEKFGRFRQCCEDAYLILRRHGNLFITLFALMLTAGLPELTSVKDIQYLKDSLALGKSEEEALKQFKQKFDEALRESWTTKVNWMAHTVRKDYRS
PI3K β (p110β/p85α)(h), sequence (P27986 whole entry partner): as the sequence (P27986 whole entry partner) above
PI3Kδ (p110δ/p85α)(h), sequence (O00329 whole entry): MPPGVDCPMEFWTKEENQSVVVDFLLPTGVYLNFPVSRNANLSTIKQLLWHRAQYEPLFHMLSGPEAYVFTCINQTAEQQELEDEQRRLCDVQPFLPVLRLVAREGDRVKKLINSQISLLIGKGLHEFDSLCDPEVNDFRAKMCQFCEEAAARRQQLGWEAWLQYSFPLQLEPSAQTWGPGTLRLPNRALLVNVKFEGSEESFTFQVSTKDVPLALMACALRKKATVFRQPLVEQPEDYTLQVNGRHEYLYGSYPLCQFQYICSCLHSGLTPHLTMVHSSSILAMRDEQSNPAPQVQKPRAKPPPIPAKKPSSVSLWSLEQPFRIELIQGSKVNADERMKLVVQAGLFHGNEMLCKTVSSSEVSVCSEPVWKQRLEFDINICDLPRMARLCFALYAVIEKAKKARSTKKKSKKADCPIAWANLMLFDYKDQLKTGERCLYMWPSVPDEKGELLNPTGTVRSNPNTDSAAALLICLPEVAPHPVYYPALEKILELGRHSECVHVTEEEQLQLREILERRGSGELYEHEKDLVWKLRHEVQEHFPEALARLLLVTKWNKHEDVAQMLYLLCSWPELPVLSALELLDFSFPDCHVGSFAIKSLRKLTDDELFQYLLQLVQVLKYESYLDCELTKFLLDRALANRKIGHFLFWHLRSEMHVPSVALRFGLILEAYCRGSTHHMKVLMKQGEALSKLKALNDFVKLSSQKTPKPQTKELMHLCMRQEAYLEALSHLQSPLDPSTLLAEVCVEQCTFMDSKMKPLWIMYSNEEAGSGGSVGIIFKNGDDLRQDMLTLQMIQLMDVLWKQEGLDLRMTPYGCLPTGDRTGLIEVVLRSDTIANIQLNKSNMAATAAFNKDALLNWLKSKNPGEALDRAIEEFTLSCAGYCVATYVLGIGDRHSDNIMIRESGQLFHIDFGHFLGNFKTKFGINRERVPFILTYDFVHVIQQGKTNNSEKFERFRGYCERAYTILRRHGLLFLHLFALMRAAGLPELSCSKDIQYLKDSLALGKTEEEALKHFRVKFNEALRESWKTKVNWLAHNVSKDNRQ
PI3Kδ (p110δ/p85α)(h), sequence (P27986 whole entry partner): as the sequence (P27986 whole entry partner) above

| SMILES | IC50 (PI3K β (p110β/p85α)(h)) | IC50 (PI3Kα (p110α/p85α)(h)) | IC50 (PI3Kδ (p110δ/p85α)(h)) | IC50 (PI3Kγ (p120γ)(h)) |
| --- | --- | --- | --- | --- |
| O=C1NC(=O)/C(=C/c2cc3cncc(-c4ccc(S(=O)(=O)NCCO)cc4)c3o2)S1 [Example 263, (Z)-4-[2-{(2,4-Dioxothiazolidin-5-ylidene)methyl}furo[3,2-c]pyridin-7-yl]-N-(2-hydroxyethyl)benzenesulfonamide] | 1400 nM | 16 nM | 2500 nM | 28 nM |
| CNS(=O)(=O)c1ccc(-c2cncc3cc(/C=C4\SC(=O)NC4=O)oc23)cc1F [Example 279, (Z)-4-[2-{(2,4-Dioxothiazolidin-5-ylidene)methyl}furo[3,2-c]pyridin-7-yl]-2-fluoro-N-methylbenzenesulfonamide] | 480 nM | 40 nM | 747 nM | 17 nM |
| CN(C)S(=O)(=O)c1ccc(-c2cncc3cc(/C=C4\SC(=O)NC4=O)oc23)cc1F [Example 280, (Z)-4-[2-{(2,4-Dioxothiazolidin-5-ylidene)methyl}furo[3,2-c]pyridin-7-yl]-2-fluoro-N,N-dimethylbenzenesulfonamide] | 1110 nM | 46 nM | 3000 nM | 22 nM |
| Cc1cc(-c2cncc3cc(/C=C4\SC(=O)NC4=O)oc23)ccc1S(=O)(=O)N1CCOCC1 [Example 307, (Z)-5-([7-{3-Methyl-4-(morpholinosulfonyl)phenyl}furo[3,2-c]pyridin-2-yl]methylene)thiazolidine-2,4-dione] | 1940 nM | 14 nM | 52 nM | 15 nM |
| Cc1cc(-c2cncc3cc(/C=C4\SC(=O)NC4=O)oc23)ccc1S(=O)(=O)NC(C)(C)C [Example 310, (Z)—N-tert-Butyl-4-[2-{(2,4-dioxothiazolidin-5-ylidene)methyl}furo[3,2-c]pyridin-7-yl]-2-methylbenzenesulfonamide] | 1940 nM | 11 nM | 220 nM | 12 nM |
| COc1ncc(-c2cncc3cc(/C=C4\SC(=S)NC4=O)oc23)cc1C#N [Example 328, (Z)-2-Methoxy-5-[2-{(4-oxo-2-thioxothiazolidin-5-ylidene)methyl}furo[3,2-c]pyridin-7-yl]nicotinonitrile] | 630 nM | 15 nM | > 10000 nM | 56 nM |
| CN(C)S(=O)(=O)c1ccc(-c2cncc3cc(/C=C4\SC(=S)NC4=O)oc23)cc1F [Example 330, (Z)-2-Fluoro-N,N-dimethyl-4-[2-{(4-oxo-2-thioxothiazolidin-5-ylidene)methyl}furo[3,2-c]pyridin-7-yl]benzenesulfonamide] | > 10000 nM | 24 nM | > 10000 nM | 12 nM |
| CS(=O)(=O)c1c(F)cc(-c2cncc3cc(/C=C4\SC(=S)NC4=O)oc23)cc1F [Example 332, (Z)-5-([7-{3,5-Difluoro-4-(methylsulfonyl)phenyl}furo[3,2-c]pyridin-2-yl]methylene)-2-thioxothiazolidin-4-one] | > 10000 nM | 10 nM | 9300 nM | 19 nM |

The remaining lines, values ahead:

| IC50 (PI3K β (p110β/p85α)(h)) | IC50 (PI3Kα (p110α/p85α)(h)) | IC50 (PI3Kδ (p110δ/p85α)(h)) | IC50 (PI3Kγ (p120γ)(h)) | SMILES |
| --- | --- | --- | --- | --- |
| 443 nM | 8 nM | 188 nM | 16 nM | CN(C)S(=O)(=O)c1ccc(-c2cncc3cc(/C=C4\SC(=S)NC4=O)oc23)cc1OC(F)(F)F [Example 339, (Z)—N,N-Dimethyl-4-[2-{(4-oxo-2-thioxothiazolidin-5-ylidene)methyl}furo[3,2-c]pyridin-7-yl]-2-(trifluoromethoxy)benzenesulfonamide] |
| > 10000 nM | 19 nM | 53 nM | 4 nM | O=C1NC(=S)S/C1=C\c1cc2cncc(-c3cc(Cl)c(S(=O)(=O)N4CCOCC4)c(Cl)c3)c2o1 [Example 343, (Z)-5-([7-{3,5-Dichloro-4-(morpholinosulfonyl)phenyl}furo[3,2-c]pyridin-2-yl]methylene)-2-thioxothiazolidin-4-one] |
| 3860 nM | 11 nM | 89 nM | 4 nM | CC(C)NS(=O)(=O)c1c(Cl)cc(-c2cncc3cc(/C=C4\SC(=S)NC4=O)oc23)cc1Cl [Example 345, (Z)-2,6-Dichloro-N-isopropyl-4-[2-{(4-oxo-2-thioxothiazolidin-5-ylidene)methyl}furo[3,2-c]pyridin-7-yl]benzenesulfonamide] |
| > 10000 nM | 4 nM | > 10000 nM | 9 nM | COC(=O)c1cc(F)cc(-c2cncc3cc(/C=C4\SC(=S)NC4=O)oc23)c1 [Example 351, (Z)-Methyl 3-fluoro-5-[2-{(4-oxo-2-thioxothiazolidin-5-ylidene)methyl}furo[3,2-c]pyridin-7-yl]benzoate] |
| 1430 nM | 41 nM | 924 nM | 10 nM | Nc1ccc(-c2cncc3cc(/C=C4\SC(=S)NC4=O)oc23)cc1C(F)(F)F [Example 361, (Z)-5-([7-{4-Amino-3-(trifluoromethyl)phenyl}furo[3,2-c]pyridin-2-yl]methylene)-2-thioxothiazolidin-4-one] |
| 869 nM | 17 nM | 205 nM | 182 nM | COc1ccccc1NC(=O)c1cncc2cc(/C=C3\SC(=O)NC3=O)oc12 [Example 412, (Z)-2-{(2,4-Dioxothiazolidin-5-ylidene)methyl}-N-(2-methoxyphenyl)furo[3,2-c]pyridine-7-carboxamide] |

Reference: patent US9493478B2, “Fused ring compound containing furan or salt thereof and pharmaceutical composition comprising same” (YUHAN CORPORATION, priority 2012, dated 2016)
